Experimental data taken from patent US20140288074A1, “FUNGICIDAL PYRAZOLES” (E I DU PONT DE NEMOURS AND COMPANY, priority 2013, published 2014).

Assays:
[1] = tested on: Puccinia recondita f. sp. tritici; experiment: Test F: preventive spray on wheat seedlings, wheat leaf rust, visual disease rating; assay type: in vivo; conditions: 200 ppm test suspension, Puccinia recondita f. sp. tritici inoculated the day after spraying; for pest or weed control at 200 ppm: 168 h
Description: General protocol for preparing test suspensions for Tests A-G: the test compounds were first dissolved in acetone in an amount equal to 3% of the final volume and then suspended at the desired concentration (in ppm) in acetone and purified water (50/50 mix by volume) containing 250 ppm of the surfactant Trem® 014 (polyhydric alcohol esters). The resulting test suspensions were then used in Tests A-G. Each test was conducted in triplicate, and the results were averaged. Spraying a 200 ppm test suspension to the point of run-off on the test plants was the equivalent of a rate of 800 g/ha. Unless otherwise indicated, the rating values indicate a 200 ppm test suspension was used. (An asterisk “*” next to the rating value indicates a 40 ppm test suspension was used.) The test suspension was sprayed to the point of run-off on wheat seedlings. The following day the seedlings were inoculated with a spore suspension of Puccinia recondita f. sp. tritici (the causal agent of wheat leaf rust) and incubated in a saturated atmosphere at 20° C. for 24 h, and then moved to a growth chamber at 20° C. for 6 days, after which time visual disease ratings were made. Results for Tests A-G are given in Table A. In the Table, a rating of 100 indicates 100% disease control and a rating of 0 indicates no disease control (relative to the controls). A hyphen (-) indicates no test results.

Septoria tritici = experiment: Test D: preventive spray on wheat seedlings, wheat leaf blotch, visual disease rating; assay type: in vivo; conditions: 200 ppm test suspension, Septoria tritici inoculated the day after spraying; for pest or weed control at 200 ppm: Zymoseptoria tritici, 504 h
Description: General protocol for preparing test suspensions for Tests A-G: the test compounds were first dissolved in acetone in an amount equal to 3% of the final volume and then suspended at the desired concentration (in ppm) in acetone and purified water (50/50 mix by volume) containing 250 ppm of the surfactant Trem® 014 (polyhydric alcohol esters). The resulting test suspensions were then used in Tests A-G. Each test was conducted in triplicate, and the results were averaged. Spraying a 200 ppm test suspension to the point of run-off on the test plants was the equivalent of a rate of 800 g/ha. Unless otherwise indicated, the rating values indicate a 200 ppm test suspension was used. (An asterisk “*” next to the rating value indicates a 40 ppm test suspension was used.) The test suspension was sprayed to the point of run-off on wheat seedlings. The following day the seedlings were inoculated with a spore suspension of Septoria tritici (the causal agent of wheat leaf blotch) and incubated in saturated atmosphere at 24° C. for 48 h. and then the seedlings were moved to a growth chamber at 20° C. for 19 additional days, after which time visual disease ratings were made. Results for Tests A-G are given in Table A. In the Table, a rating of 100 indicates 100% disease control and a rating of 0 indicates no disease control (relative to the controls). A hyphen (-) indicates no test results.

[2] = tested on: Puccinia recondita f. sp. tritici; experiment: Test E: spray after inoculation of wheat seedlings, wheat leaf rust, visual disease rating; assay type: in vivo; conditions: 200 ppm test suspension, sprayed after inoculation with Puccinia recondita f. sp. tritici
Description: General protocol for preparing test suspensions for Tests A-G: the test compounds were first dissolved in acetone in an amount equal to 3% of the final volume and then suspended at the desired concentration (in ppm) in acetone and purified water (50/50 mix by volume) containing 250 ppm of the surfactant Trem® 014 (polyhydric alcohol esters). The resulting test suspensions were then used in Tests A-G. Each test was conducted in triplicate, and the results were averaged. Spraying a 200 ppm test suspension to the point of run-off on the test plants was the equivalent of a rate of 800 g/ha. Unless otherwise indicated, the rating values indicate a 200 ppm test suspension was used. (An asterisk “*” next to the rating value indicates a 40 ppm test suspension was used.) Wheat seedlings were inoculated with a spore suspension of Puccinia recondita f. sp. tritici (the causal agent of wheat leaf rust) and incubated in a saturated atmosphere at 20° C. for 24 h, and then moved to a growth chamber at 20° C. for 2 days. At the end of this time the, the test suspension was sprayed to the point of run-off on the wheat seedlings, and then the seedlings were moved back to the growth chamber at 20° C. for 4 days. Upon removal, visual disease ratings were made. Results for Tests A-G are given in Table A. In the Table, a rating of 100 indicates 100% disease control and a rating of 0 indicates no disease control (relative to the controls). A hyphen (-) indicates no test results.

Septoria nodorum = experiment: Test C: preventive spray on wheat seedlings, Septoria glume blotch, visual disease rating; assay type: in vivo; conditions: 200 ppm test suspension, Septoria nodorum inoculated the day after spraying; for pest or weed control at 200 ppm: Parastagonospora nodorum, 264 h
Description: General protocol for preparing test suspensions for Tests A-G: the test compounds were first dissolved in acetone in an amount equal to 3% of the final volume and then suspended at the desired concentration (in ppm) in acetone and purified water (50/50 mix by volume) containing 250 ppm of the surfactant Trem® 014 (polyhydric alcohol esters). The resulting test suspensions were then used in Tests A-G. Each test was conducted in triplicate, and the results were averaged. Spraying a 200 ppm test suspension to the point of run-off on the test plants was the equivalent of a rate of 800 g/ha. Unless otherwise indicated, the rating values indicate a 200 ppm test suspension was used. (An asterisk “*” next to the rating value indicates a 40 ppm test suspension was used.) The test suspension was sprayed to the point of run-off on wheat seedlings. The following day the seedlings were inoculated with a spore suspension of Septoria nodorum (the causal agent of Septoria glume blotch) and incubated in a saturated atmosphere at 24° C. for 48 h, and then moved to a growth chamber at 20° C. for 9 days, after which time visual disease ratings were made. Results for Tests A-G are given in Table A. In the Table, a rating of 100 indicates 100% disease control and a rating of 0 indicates no disease control (relative to the controls). A hyphen (-) indicates no test results.

[3] = tested on: Blumeria graminis f. sp. tritici; experiment: Test G: preventive spray on wheat seedlings, wheat powdery mildew, visual disease rating;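 for all read-outs here: rated 8 days after spore dust inoculation at 20 °C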; assay type: in vivo; conditions: 200 ppm test suspension, Blumeria graminis f. sp. tritici inoculated the day after spraying; for pest or weed control at 200 ppm: 192 h
Description: General protocol for preparing test suspensions for Tests A-G: the test compounds were first dissolved in acetone in an amount equal to 3% of the final volume and then suspended at the desired concentration (in ppm) in acetone and purified water (50/50 mix by volume) containing 250 ppm of the surfactant Trem® 014 (polyhydric alcohol esters). The resulting test suspensions were then used in Tests A-G. Each test was conducted in triplicate, and the results were averaged. Spraying a 200 ppm test suspension to the point of run-off on the test plants was the equivalent of a rate of 800 g/ha. Unless otherwise indicated, the rating values indicate a 200 ppm test suspension was used. (An asterisk “*” next to the rating value indicates a 40 ppm test suspension was used.) The test suspension was sprayed to the point of run-off on wheat seedlings. The following day the seedlings were inoculated with a spore dust of Blumeria graminis f. sp. tritici (also known as Erysiphe graminis f. sp. tritici, the causal agent of wheat powdery mildew) and incubated in a growth chamber at 20° C. for 8 days, after which time visual disease ratings were made. Results for Tests A-G are given in Table A. In the Table, a rating of 100 indicates 100% disease control and a rating of 0 indicates no disease control (relative to the controls). A hyphen (-) indicates no test results.

Alternaria solani = experiment: Test B: preventive spray on tomato seedlings, tomato early blight, visual disease rating; assay type: in vivo; conditions: 200 ppm test suspension, Alternaria solani inoculated the day after spraying
Description: General protocol for preparing test suspensions for Tests A-G: the test compounds were first dissolved in acetone in an amount equal to 3% of the final volume and then suspended at the desired concentration (in ppm) in acetone and purified water (50/50 mix by volume) containing 250 ppm of the surfactant Trem® 014 (polyhydric alcohol esters). The resulting test suspensions were then used in Tests A-G. Each test was conducted in triplicate, and the results were averaged. Spraying a 200 ppm test suspension to the point of run-off on the test plants was the equivalent of a rate of 800 g/ha. Unless otherwise indicated, the rating values indicate a 200 ppm test suspension was used. (An asterisk “*” next to the rating value indicates a 40 ppm test suspension was used.) The test suspension was sprayed to the point of run-off on tomato seedlings. The following day the seedlings were inoculated with a spore suspension of Alternaria solani (the causal agent of tomato early blight) and incubated in a saturated atmosphere at 27° C. for 48 h, and then moved to a growth chamber at 20° C. for 5 days, after which time visual disease ratings were made. Results for Tests A-G are given in Table A. In the Table, a rating of 100 indicates 100% disease control and a rating of 0 indicates no disease control (relative to the controls). A hyphen (-) indicates no test results.

Botrytis cinerea = experiment: Test A: preventive spray on tomato seedlings, tomato Botrytis, visual disease rating; assay type: in vivo; conditions: 120 h, 200 ppm test suspension, Botrytis cinerea inoculated the day after spraying
Description: General protocol for preparing test suspensions for Tests A-G: the test compounds were first dissolved in acetone in an amount equal to 3% of the final volume and then suspended at the desired concentration (in ppm) in acetone and purified water (50/50 mix by volume) containing 250 ppm of the surfactant Trem® 014 (polyhydric alcohol esters). The resulting test suspensions were then used in Tests A-G. Each test was conducted in triplicate, and the results were averaged. Spraying a 200 ppm test suspension to the point of run-off on the test plants was the equivalent of a rate of 800 g/ha. Unless otherwise indicated, the rating values indicate a 200 ppm test suspension was used. (An asterisk “*” next to the rating value indicates a 40 ppm test suspension was used.) The test suspension was sprayed to the point of run-off on tomato seedlings. The following day the seedlings were inoculated with a spore suspension of Botrytis cinerea (the causal agent of tomato Botrytis) and incubated in saturated atmosphere at 20° C. for 48 h, and then moved to a growth chamber at 24° C. for 3 additional days, after which time visual disease ratings were made. Results for Tests A-G are given in Table A. In the Table, a rating of 100 indicates 100% disease control and a rating of 0 indicates no disease control (relative to the controls). A hyphen (-) indicates no test results.

| melting point [°C] | SMILES | pest or weed control at 200 ppm [1] [%] | pest or weed control at 200 ppm (Septoria tritici) [%] | Test E rating (disease control) [2] [%] | pest or weed control at 200 ppm (Septoria nodorum) [%] | pest or weed control at 200 ppm [3] [%] | Test B rating (disease control) (Alternaria solani) [%] | pest or weed control at 200 ppm (Botrytis cinerea) [%] | Test F rating (disease control) [1] [%] | Test D rating (disease control) (Septoria tritici) [%] | Test C rating (disease control) (Septoria nodorum) [%] | Test G rating (disease control) [3] [%] |
| --- | --- | --- | --- | --- | --- | --- | --- | --- | --- | --- | --- | --- |
| – | Cc1nn(C)c(C(O)C2CCCCC2)c1-c1c(F)cccc1Cl (stereo not drawn) [Compound 16, 4-(2-chloro-6-fluorophenyl)-α-cyclohexyl-1,3-dimethyl-1H-pyrazole-5-methanol] | 79 | 100 | 0 | 0 | 100 | 89 | – | – | – | – | – |
| 98 to 100 | Cc1nn(C)c(N2CCC(C)CC2)c1-c1ccc(F)cc1Cl [Compound 42, 1-[4-(2-chloro-4-fluorophenyl)-1,3-dimethyl-1H-pyrazol-5-yl]-4-methylpiperidine] | 72 | 99 | – | 0 | 0 | – | 0 | – | – | – | – |
| – | CCC=C(C)C(O)c1c(-c2c(F)cccc2F)c(C)nn1C (stereo not drawn) [Compound 18] | – | – | 9 | – | – | 96 | – | 18 | 24 | 0 | 60 |
| – | CC=C(C)C(O)c1c(-c2c(F)cccc2Cl)c(C)nn1C (stereo not drawn) [Compound 17] | – | – | 9 | – | – | 58 | – | 74 | 72 | 0 | 78 |
